{
  "source": "ChEMBL document CHEMBL4699480",
  "about": "(J Med Chem, 2020)",
  "key": {"[1]": {"experiment": "Cytotoxicity in human PD002 cells assessed as reduction in cell viability incubated for 72 hrs by MTT assay", "assay_type": "functional, cell-based", "conditions": "PD002, 72 h"}, "[2]": {"biological_target": "T1, UDP-N-acetylglucosamine--dolichyl-phosphate N-acetylglucosaminephosphotransferase (Homo sapiens) (UniProt Q9H3H5)", "T1 sequence (whole entry)": "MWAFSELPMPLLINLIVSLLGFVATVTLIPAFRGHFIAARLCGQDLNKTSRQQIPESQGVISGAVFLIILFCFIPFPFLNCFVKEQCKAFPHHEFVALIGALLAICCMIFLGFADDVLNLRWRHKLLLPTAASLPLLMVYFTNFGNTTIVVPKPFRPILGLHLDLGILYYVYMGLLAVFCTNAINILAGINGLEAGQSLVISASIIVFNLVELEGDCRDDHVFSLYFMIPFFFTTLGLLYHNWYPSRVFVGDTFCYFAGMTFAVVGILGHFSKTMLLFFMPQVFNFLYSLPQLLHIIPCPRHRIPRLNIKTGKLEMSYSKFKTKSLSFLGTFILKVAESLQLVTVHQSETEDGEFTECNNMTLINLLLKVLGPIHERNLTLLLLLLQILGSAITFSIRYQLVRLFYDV", "experiment": "Inhibition of DPAGT1 in human PANC-1 cells assessed as reduction in snail protein expression incubated for 24 hrs by immunofluorescence staining assay", "assay_type": "cell-based"}, "[3]": {"biological_target": "T1, UDP-N-acetylglucosamine--dolichyl-phosphate N-acetylglucosaminephosphotransferase (Homo sapiens)", "experiment": "Inhibition of DPAGT1 in human PANC-1 cells assessed as reduction in snail protein expression incubated for 24 hrs by Western blot analysis", "assay_type": "cell-based"}, "PANC-1": {"test_system": "PANC-1", "experiment": "Inhibition of E-cadherin protein expression in human PANC-1 cells at 0 to 2 uM incubated for 24 hrs by Western blot analysis", "assay_type": "functional, cell-based", "conditions": "dose microM 0-2, time […]"}, "HCT-116": {"test_system": "HCT-116", "experiment": "Inhibition of E-cadherin protein expression in human HCT-116 cells at 0 to 2 uM incubated for 24 hrs by Western blot analysis", "assay_type": "functional, cell-based", "conditions": "dose microM 0-2, time […]"}, "[4]": {"experiment": "Synergistic cytotoxicity in human PD002 cells assessed as FIC at 2 uM incubated for 72 hrs in presence of 0.020 uM paclitaxel by IncuCyte live cell analysis imaging system based assay", "assay_type": "functional"}, "[5]": {"experiment": "Synergistic cytotoxicity in human PD002 cells assessed as FIC at 2 uM incubated for 72 hrs in presence of 0.31 uM paclitaxel by IncuCyte live cell analysis imaging system based assay", "assay_type": "functional"}, "SiHa": {"test_system": "SiHa", "experiment": "Inhibition of DPAGT1 protein expression in human SiHa cells at 0.2 uM incubated for 24 hrs by Western blot analysis", "assay_type": "functional, cell-based"}, "[6]": {"experiment": "Inhibition of DPAGT1 protein expression in human HCT-116 cells assessed as DPAGT1 protein level at 0.1 to 20 uM incubated for 24 hrs by Western blot analysis", "assay_type": "functional", "parameters": "scale not given: the % may be the effect or the level left", "conditions": "dose microM 0.1-20"}, "PD002": {"test_system": "PD002", "experiment": "Inhibition of DPAGT1 mRNA expression in human PD002 cells at 0 to 10 uM incubated for 24 hrs by RT-qPCR analysis", "assay_type": "functional, cell-based", "conditions": "dose microM 0-10, time […]"}, "[7]": {"experiment": "Cytotoxicity in mouse L1210 cells assessed as reduction in cell viability incubated for 72 hrs by MTT assay", "conditions": "L1210, 72 h"}},
  "note": "Active and inactive are the calls of the source. The calls are words filed in the database; no cut-off is given here.",
  "data": [
    {"smiles": "CO[C@H]1[C@@H](O)[C@H](n2ccc(=O)[nH]c2=O)O[C@@H]1[C@@H](O[C@H]1OC(C(=O)NCc2ccc(N3CCC(Oc4ccc(OC(F)(F)F)cc4)CC3)cc2)=C[C@H](O)[C@@H]1O)C(N)=O", "values": [
      {"measurement": "IC50", "setting": "[1]", "result": 35, "unit": "µM"},
      {"measurement": "inhibition", "setting": "[2]", "result": "Active"},
      {"measurement": "inhibition", "setting": "[3]", "result": "Active"},
      {"measurement": "inhibition", "setting": "PANC-1", "result": "inactive"},
      {"measurement": "inhibition", "setting": "HCT-116", "result": "inactive"},
      {"measurement": "FIC", "setting": "[4]", "result": 0.021},
      {"measurement": "FIC", "setting": "[5]", "result": 0.26},
      {"measurement": "inhibition", "setting": "SiHa", "result": "Active"},
      {"measurement": "Activity", "setting": "[6]", "result": 20, "unit": "%"},
      {"measurement": "inhibition", "setting": "PD002", "result": "inactive"},
      {"measurement": "IC50", "setting": "[7]", "result": "> 50", "unit": "µM"}
    ]}
  ]
}
